Patent US12583849B2, “KCNT1 inhibitors and methods of use” (Praxis Precision Medicines, Inc., priority 2020, dated 2026)

Biological target: T1, KCNT1 (KNa1.1, Slack) (Homo sapiens, UniProt Q5JUK3)
T1 construct: expressed in transfected cells; host or cells: HEK-TREX (tetracycline-inducible cell line)
T1 sequence (Q5JUK3 1-1230): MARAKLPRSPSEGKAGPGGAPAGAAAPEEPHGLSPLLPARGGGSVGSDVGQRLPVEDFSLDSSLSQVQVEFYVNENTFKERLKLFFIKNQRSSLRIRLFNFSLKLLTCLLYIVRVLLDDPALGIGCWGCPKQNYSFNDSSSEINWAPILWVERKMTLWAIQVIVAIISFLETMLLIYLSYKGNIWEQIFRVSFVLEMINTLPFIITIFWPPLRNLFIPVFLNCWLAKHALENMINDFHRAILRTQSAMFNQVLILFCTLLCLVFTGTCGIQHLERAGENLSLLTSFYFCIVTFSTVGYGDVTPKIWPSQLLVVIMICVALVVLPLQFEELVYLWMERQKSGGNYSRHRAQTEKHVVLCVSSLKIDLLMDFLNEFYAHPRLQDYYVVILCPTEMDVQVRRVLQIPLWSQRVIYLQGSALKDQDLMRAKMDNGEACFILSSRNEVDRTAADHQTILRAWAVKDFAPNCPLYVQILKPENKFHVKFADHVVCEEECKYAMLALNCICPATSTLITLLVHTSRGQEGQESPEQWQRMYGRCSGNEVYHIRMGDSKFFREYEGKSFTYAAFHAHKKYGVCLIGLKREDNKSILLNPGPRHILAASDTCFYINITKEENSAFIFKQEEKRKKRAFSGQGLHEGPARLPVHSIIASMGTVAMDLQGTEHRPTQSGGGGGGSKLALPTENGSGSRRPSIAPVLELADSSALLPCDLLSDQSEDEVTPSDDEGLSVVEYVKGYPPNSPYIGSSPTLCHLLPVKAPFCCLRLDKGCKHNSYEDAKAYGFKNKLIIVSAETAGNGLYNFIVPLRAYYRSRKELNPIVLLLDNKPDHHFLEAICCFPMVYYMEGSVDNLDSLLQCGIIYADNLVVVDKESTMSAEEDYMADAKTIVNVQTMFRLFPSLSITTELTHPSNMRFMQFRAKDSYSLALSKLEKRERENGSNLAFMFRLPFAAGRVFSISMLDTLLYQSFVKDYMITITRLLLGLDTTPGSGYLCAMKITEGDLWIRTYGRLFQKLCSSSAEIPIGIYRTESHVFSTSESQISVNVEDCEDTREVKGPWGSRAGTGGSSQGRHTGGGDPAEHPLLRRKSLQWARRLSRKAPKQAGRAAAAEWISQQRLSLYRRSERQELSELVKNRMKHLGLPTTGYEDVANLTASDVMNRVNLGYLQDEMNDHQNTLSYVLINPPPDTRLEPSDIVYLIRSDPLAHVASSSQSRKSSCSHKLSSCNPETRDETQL
Assay: KCNT1-WT-Basal Patch Clamp Assay
Assay type: cell-based
Conditions: tetracycline inducible cell line (HEK-TREX); SyncroPatch 384PE automated patch clamp, perforated patch mode, room temperature, step from -80 mV to 0 mV
Summary of the method: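 Tetracycline-inducible HEK-TREX cells expressing human KCNT1, recorded by automated perforated patch clamp (10 μM escin) at room temperature, with 4 mM external K+ at pH 7.4. Mean current taken during a 100 ms step from −80 mV to 0 mV, averaged over 3 sweeps. IC50 from Hill fit of % inhibition; otherwise % inhibition at top concentration.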

IC50 [nM]	SMILES
≤ 1000	CC1CC(C(=O)N[C@@H](C)c2nc(-c3ccnc(C(F)(F)F)c3)no2)C1 (mixture of isomers) [Compound I-74, 3-methyl-N-[(1S)-1-[3-[2-(trifluoromethyl)-4-pyridyl]-1,2,4-oxadiazol-5-yl]ethyl]cyclobutanecarboxamide]
≥ 20000	CC(=O)N1CCCCC1C(=O)N[C@@H](C)c1nc(-c2ccnc(C(F)(F)F)c2)no1 (mixture of isomers) [Compound I-86, 1-acetyl-N-[(1S)-1-[3-[2-(trifluoromethyl)-4-pyridyl]-1,2,4-oxadiazol-5-yl]ethyl]piperidine-2-carboxamide]
1000 to 20000	C[C@H](NC(=O)CC(F)(F)F)c1nc(-c2ccnc(C(F)(F)F)c2)no1 [III-2, (S)-3,3,3-trifluoro-N-(1-(3-(2-(trifluoromethyl)pyridin-4-yl)-1,2,4-oxadiazol-5-yl)ethyl)propenamide]
≤ 1000	C[C@H](NC(=O)c1ccccc1)c1nc(-c2ccnc(C3CC3)c2)no1 [Compound I-41, (S)—N-(1-(3-(2-cyclopropylpyridin-4-yl)-1,2,4-oxadiazol-5-yl)ethyl)benzamide]
≤ 1000	C[C@H](NC(=O)C1(C)CCCCC1)c1nc(-c2ccnc(C(F)(F)F)c2)no1 [Compound I-71, 1-methyl-N-[(1S)-1-[3-[2-(trifluoromethyl)-4-pyridyl]-1,2,4-oxadiazol-5-yl]ethyl]cyclohexanecarboxamide]
≤ 1000	C[C@H](NC(=O)c1cccc(C#N)c1)c1nc(-c2ccnc(C3CC3)c2)no1 [Compound I-88, (S)-3-cyano-N-(1-(3-(2-cyclopropylpyridin-4-yl)-1,2,4-oxadiazol-5-yl)ethyl)benzamide]
≤ 1000	C[C@H](NC(=O)[C@@H](C)c1ccccc1)c1nc(-c2ccnc(C(F)(F)F)c2)no1 [Compound I-16, (S)-2-phenyl-N—((S)-1-(3-(2-(trifluoromethyl)pyridin-4-yl)-1,2,4-oxadiazol-5-yl)ethyl)propanamide]
≤ 1000	CC(C)Oc1cc(-c2noc([C@H](C)NC(=O)N3CCCCC3)n2)ccn1 [II-2]
≤ 1000	C[C@H](NC(=O)[C@H]1CC[C@@H](C)CC1)c1nc(-c2ccnc(C(F)(F)F)c2)no1 [Compound I-36, cis-4-methyl-N—((S)-1-(3-(2-(trifluoromethyl)pyridin-4-yl)-1,2,4-oxadiazol-5-yl)ethyl)cyclohexane-1-carboxamide]
1000 to 20000	Cc1oncc1C(=O)N[C@@H](C)c1nc(-c2ccnc(C(F)(F)F)c2)no1 [Compound I-21, (S)-5-methyl-N-(1-(3-(2-(trifluoromethyl)pyridin-4-yl)-1,2,4-oxadiazol-5-yl)ethyl)isoxazole-4-carboxamide]
≤ 1000	C[C@H](NC(=O)N1CCOc2ccccc21)c1nc(-c2ccnc(C3CC3)c2)no1 [II-6]
≥ 20000	C[C@H](NC(=O)C1CCC(O)CC1)c1nc(-c2ccnc(C(F)(F)F)c2)no1 (single isomer, unassigned) [Compound I-78]
1000 to 20000	C[C@H](NC(=O)c1cccc(C(=O)N(C)C)c1)c1nc(-c2ccnc(C3CC3)c2)no1 [Compound I-90, (S)—N1-(1-(3-(2-cyclopropylpyridin-4-yl)-1,2,4-oxadiazol-5-yl)ethyl)-N3,N3-dimethylisophthalamide]
≤ 1000	C[C@H](NC(=O)C1CC2(CCC2)C1)c1nc(-c2ccnc(C3CC3)c2)no1 [Compound I-98, (S)—N-(1-(3-(2-cyclopropylpyridin-4-yl)-1,2,4-oxadiazol-5-yl)ethyl) spiro[3.3]heptane-2-carboxamide]
≥ 20000	C[C@H](NC(=O)CN1CCCCC1)c1nc(-c2ccnc(C(F)(F)F)c2)no1 [Compound I-35, (S)-2-(piperidin-1-yl)-N-(1-(3-(2-(trifluoromethyl)pyridin-4-yl)-1,2,4-oxadiazol-5-yl)ethyl)acetamide]
1000 to 20000	CC1CCCC1C(=O)N[C@@H](C)c1nc(-c2ccnc(C(F)(F)F)c2)no1 (stereo partly drawn) [Compound I-30, 2-methyl-N—((S)-1-(3-(2-(trifluoromethyl)pyridin-4-yl)-1,2,4-oxadiazol-5-yl)ethyl)cyclopentane-1-carboxamide]

IC50 [nM]	SMILES
≥ 20000	C[C@H](NC(=O)c1cccnn1)c1nc(-c2ccnc(C(F)(F)F)c2)no1 [Compound I-24, (S)—N-(1-(3-(2-(trifluoromethyl)pyridin-4-yl)-1,2,4-oxadiazol-5-yl)ethyl)pyridazine-3-carboxamide]
≤ 1000	Cc1ccc(C(=O)N[C@@H](C)c2nc(-c3ccnc(C4CC4)c3)no2)cc1 [Compound I-87, (S)—N-(1-(3-(2-cyclopropylpyridin-4-yl)-1,2,4-oxadiazol-5-yl)ethyl)-4-methylbenzamide]
≤ 1000	CC(C)Oc1cc(-c2noc([C@H](C)NC(=O)N3CCCc4ccccc43)n2)ccn1 [II-3]
≤ 1000	Cc1cccc(C(=O)N[C@@H](C)c2nc(-c3ccnc(C4CC4)c3)no2)c1 [Compound I-81, N-[(1S)-1-[3-(2-cyclopropyl-4-pyridyl)-1,2,4-oxadiazol-5-yl]ethyl]-3-methyl-benzamide]
≥ 20000	CC(=O)N1CCCC(C(=O)N[C@@H](C)c2nc(-c3ccnc(C(F)(F)F)c3)no2)C1 (mixture of isomers) [Compound I-85, 1-acetyl-N-[(1S)-1-[3-[2-(trifluoromethyl)-4-pyridyl]-1,2,4-oxadiazol-5-yl]ethyl]piperidine-3-carboxamide]
≤ 1000	CC1CCC(C(=O)N[C@@H](C)c2nc(-c3ccnc(C(F)(F)F)c3)no2)CC1 (stereo partly drawn) [Compound I-19, (S)-4-methyl-N-(1-(3-(2-(trifluoromethyl)pyridin-4-yl)-1,2,4-oxadiazol-5-yl)ethyl)cyclohexane-1-carboxamide]
≤ 1000	C[C@H](NC(=O)c1ccnc(C(F)(F)F)c1)c1nc(-c2ccnc(C(F)(F)F)c2)no1 [Compound I-14, (S)-2-(trifluoromethyl)-N-(1-(3-(2-(trifluoromethyl)pyridin-4-yl)-1,2,4-oxadiazol-5-yl)ethyl)isonicotinamide]
≤ 1000	C[C@H](NC(=O)C1CCCC1)c1nc(-c2ccnc(C3CC3)c2)no1 [Compound I-105, (S)—N-(1-(3-(2-cyclopropylpyridin-4-yl)-1,2,4-oxadiazol-5-yl)ethyl)cyclopentanecarboxamide]
1000 to 20000	C[C@H](NC(=O)N1CCCCC1)c1nc(-c2ccnc(C(F)(F)F)c2)no1 [II-10]
1000 to 20000	C[C@H](NC(=O)C1(C)CC1)c1nc(-c2ccnc(C(F)(F)F)c2)no1 [Compound I-33, (S)-1-methyl-N-(1-(3-(2-(trifluoromethyl)pyridin-4-yl)-1,2,4-oxadiazol-5-yl)ethyl)cyclopropane-1-carboxamide]
≥ 20000	CC(=O)N1CCC(C(=O)N[C@@H](C)c2nc(-c3ccnc(C(F)(F)F)c3)no2)CC1 [Compound I-73, 1-acetyl-N-[(1S)-1-[3-[2-(trifluoromethyl)-4-pyridyl]-1,2,4-oxadiazol-5-yl]ethyl]piperidine-4-carboxamide]
≤ 1000	Cc1ccccc1C(=O)N[C@@H](C)c1nc(-c2ccnc(C3CC3)c2)no1 [Compound I-83, N-[(1S)-1-[3-(2-cyclopropyl-4-pyridyl)-1,2,4-oxadiazol-5-yl]ethyl]-2-methyl-benzamide]
≤ 1000	C[C@H](NC(=O)c1ccccc1Cl)c1nc(-c2ccnc(C3CC3)c2)no1 [Compound I-80, 2-chloro-N-[(1S)-1-[3-(2-cyclopropyl-4-pyridyl)-1,2,4-oxadiazol-5-yl]ethyl]benzamide]
≤ 1000	CC(C)Oc1cc(-c2noc([C@H](C)NC(=O)N(C)C(C)(C)C)n2)ccn1 [II-5]
≤ 1000	C[C@H](NC(=O)[C@H](C)c1ccccc1)c1nc(-c2ccnc(C3CC3)c2)no1 [Compound I-58, (R)—N—((S)-1-(3-(2-cyclopropylpyridin-4-yl)-1,2,4-oxadiazol-5-yl)ethyl)-2-phenylpropanamide]
≤ 1000	C[C@H](NC(=O)N(C)c1ccccc1)c1nc(-c2ccnc(C(F)(F)F)c2)no1 [II-12]
